# Results reported in US9028856B2, “Synergistic pesticide compositions” (priority 2008, dated 2015).
# How the values were obtained:
# Type in all cases: in vivo
# Aedes aegypti mosquito = test: USDA Petri Dish Method, 3 min exposure to dipped fiberglass window screen; details: Table 39, permethrin without adjuvant (Permanone 40), dipped screen, 3 min exposure
# Procedure: MATERIALS AND METHODS: Aqueous solutions of 1% deltamethrin with and without an adjuvant composition, which is sold under the tradename Suspend® SC. […] Pre-cut fiberglass screen (5″×5″, or 161.3 cm^2) were dipped in each treatment solution and excessive solution was allowed to drain completely (see FIG. 23 a). Weight of the solution coated on the screen was then determined. The treated screen was then allowed to air-dry overnight. USDA Petri Dish Method was used as initial screening protocol (see FIG. 23 b). Twenty, 4-6 day old female Aedes aegypti were exposed to treated window screen for 3 minutes and then moved onto a clean untreated white paper index card. Treatments were replicated a minimum of three times. Mosquito knockdown was evaluated at 3 minute intervals for the first 15 minutes and then at 5 minute intervals for the remainder of an hour. A small cotton ball with sucrose solution was added on the screen top of the Petri dish as a drinking source. Mortality was evaluated at 24 hours after exposure.
# MATERIALS AND METHODS: Several rates of permethrin without adjuvant were prepared using product sold under the tradename Permanone® 40 to determine an effective rate against Aedes aegypti mosquitoes. After determining an effective rate range, aqueous solutions of permethrin at 1.25, 1.0 and 0.05% AI were prepared with and without adjuvant. […] Pre-cut fiberglass screens (5″×5″ or 161.3 cm^2) were dipped in each treatment solution allowing excessive solution to drain completely. Weight of the solution coated on the screen was then determined. The treated screen was then allowed to air-dry overnight. USDA Petri Dish Method was used as initial screening protocol (see photo, right). Twenty, 4-6 day old female Aedes aegypti were exposed to treated window screen for 3 minutes and then moved to a clean untreated white paper index card. Treatments were replicated a minimum of three times. Mosquito knockdown was evaluated at 3 minute intervals for the first 15 minutes and then at 5 minute intervals for the remainder of an hour. A small cotton ball with sucrose solution was added on the screen top of the petri-dish as a drinking source. Mortality was evaluated at 24 hours after exposure.
# [1] = tested on: malaria mosquito (Anopheles gambiae); test: Five-minute exposure bioassay, WHO Adult Mosquito Susceptibility Test Kit, treated filter paper; details: for KT 50 / KT 95 / % knock down after 10′ / % knock down after 15′ / % knock down after 20′ / % knock down after 25′ / % knock down after 30′ / % knock down after 45′ / % knock down after 60′ / % mortality 1 d: Table 80, filter paper (mg/m^2); for % mortality 1 d: mortality 24 hours post exposure; for % knock down after 5′: Table 80, technical sample on filter paper (mg/m^2)
# Procedure: The bioassays were carried out using the WHO Adult Mosquito Susceptibility Test Kit, (WHO/VBC 81.805, 1981) with plastic cylinders (4.5 cm diameter, 12 cm height). All bioassays were done using preferably female sugar fed Anopheles gambiae mosquitoes. Knock down was recorded after at 5, 10, 15, 20, 25, 30, 45 and 60 minutes, when the mosquitoes were supplied with a 5% sugar water source for 24 hours. Mortality was recorded 24 hours post exposure. Each test consisted of three replicates from which the mean values were calculated. The insecticides (all technical grades) were applied as 2 ml acetone solutions onto filter papers (12 cm×15 cm).
# [2] = tested on: tropical house mosquito Culex quinquefasciatus (adults, 3 days old); test: Efficacy of formulations on surfaces (glazed/unglazed tiles, plywood), ten 3 day old mosquitoes, 3 min exposure; details: for % KD and Mortality: in acetone on glazed tiles, Table 84; for efficacy enhancement of the insecticide by the additive (summary in words): Culex quinquefasciatus, 3 min exposure, mostly 0.1% bendiocarb + 1% additive on glazed tiles, details as worded
# Procedure: The ingredients were diluted in acetone to give a concentration which corresponds to the desired quantity of a.i./m^2. A 1 ml quantity of the solution was applied by pipette onto the 15 cm×15 cm surfaces without treating the outer edge of 1 cm.
# (§1) Ten 3 day old Culex quinquefasciatus mosquitoes were exposed to each treatment for 3 minutes under a perforated petri dish, and then a clean untreated white paper index card was moved between treated surface and petri dish. A water-soaked cotton pad was applied immediately after.
# Each test consisted of three replicates (three batches of ten mosquitoes were exposed for three minutes to the same surface, each one hour later), of which the mean values are calculated.
# The test insects were Culex quinquefasciatus (adults, 3 days old). The compositions were evaluated for their ability to provide effective knock down after 3, 9, 15, and 30 minutes, 1, 2, 3, 4 and 24 hours (mortality). The experiments were performed in triplicate on glazed tile, but not repeated on wood.
# Test Insects are Culex quinquefasciatus (adults, 3 days old). The Application provides the technical compounds were dissolved in acetone and applied as 1 ml solutions onto glazed tiles (15 cm×15 cm). An evaluation is provided at knock down after 3, 9, 15, and 30 minutes, 1, 2, 3, 4 and 24 hours (mortality). There are 3 replicates.
# Test Insects: Culex quinquefasciatus (adults, 3 days old)
# Application: The technical compounds were dissolved in acetone and applied as 1 ml solutions onto glazed tiles (15 cm×15 cm).
# Evaluation: Knock down after 3, 9, 15, and 30 minutes, 1, 2, 3, 4 and 24 hours (mortality) […]
# Application: The active ingredients were applied as 1 ml acetone solutions onto glazed tiles (15 cm×15 cm) […]
# as §1, with “For the mosquitoes, the USDA Petri Dish Method is used. Ten” for “Ten”, “are” for “were”, “dish” for “dish,”, “is” for “was”, “after. […]” for “after.”
SMILES,KT 50 [1] [min],KT 95 [1] [min],% knock down after 10′ [1] [%],% knock down after 15′ [1] [%],% knock down after 20′ [1] [%],% knock down after 25′ [1] [%],% knock down after 30′ [1] [%],% knock down after 45′ [1] [%],% knock down after 60′ [1] [%],% mortality 1 d [1] [%],% knock down after 5′ [1] [%],other results
CC1(C)C(C=C(Cl)Cl)C1C(=O)OCc1cccc(Oc2ccccc2)c1 (centres unmarked) [Permethrin (1.75%)],,,,,,,,,,,,Average % Knockdown & Mortality after 3 min (Aedes aegypti mosquito; 3 min): 40%; Average % Knockdown & Mortality after 9 min (Aedes aegypti mosquito; 9 min): 95%; Average % Knockdown & Mortality after 15 min (Aedes aegypti mosquito; 15 min): 100%; Average % Knockdown & Mortality after 30 min (Aedes aegypti mosquito; 30 min): 100%; Average % Knockdown & Mortality after 60 min (Aedes aegypti mosquito; 60 min): 100%; Average % Knockdown & Mortality after 24 hr (Aedes aegypti mosquito; 24 hr): 100%
CNC(=O)Oc1cccc2c1OC(C)(C)O2 [5 mg Bendiocarb],>60,>60,6,6,6,6,6,6,6,12,6,
CNC(=O)Oc1cccc2c1OC(C)(C)O2 [20 mg Bendiocarb],>60,>60,6,4,6,13,13,20,21,27,3,
CC1(C)C(C=C(Br)Br)C1C(=O)OC(C#N)c1cccc(Oc2ccccc2)c1 (centres unmarked) [20 mg DTM],21,>60,23,39,45,52,66,79,86,75,9,
CNC(=O)Oc1cccc2c1OC(C)(C)O2 [40 mg bendiocarb],12,>60,50,56,68,74,76,81,85,94,16,
CC1(C)[C@H](C(=O)O[C@H](C#N)c2cccc(Oc3ccccc3)c2)[C@@H]1C=C(Br)Br [10 mg DTM],>60,>60,2,2,2,5,9,18,26,17,0,
CC1(C)CC(O)CC(C)(C)N1,,,,,,,,,,,,% KD and Mortality ([2]; 3′): 0%; % KD and Mortality ([2]; 9′): 0%; % KD and Mortality ([2]; 15′): 0%; % KD and Mortality ([2]; 30′): 0%; % KD and Mortality ([2]; 1 h): 0%; % KD and Mortality ([2]; 2 h): 0%; % KD and Mortality ([2]; 3 h): 0%; % KD and Mortality ([2]; 4 h): 0%; % KD and Mortality ([2]; 24 h (mortality)): 3%
CC1(C)CC(OC(=O)CCCCCCCCC(=O)OC2CC(C)(C)NC(C)(C)C2)CC(C)(C)N1,,,,,,,,,,,,% KD and Mortality ([2]; 3′): 0%; % KD and Mortality ([2]; 9′): 0%; % KD and Mortality ([2]; 15′): 0%; % KD and Mortality ([2]; 30′): 0%; % KD and Mortality ([2]; 1 h): 3%; % KD and Mortality ([2]; 2 h): 0%; % KD and Mortality ([2]; 3 h): 3%; % KD and Mortality ([2]; 4 h): 3%; % KD and Mortality ([2]; 24 h (mortality)): 17%
CNC(=O)Oc1cccc2c1OC(C)(C)O2 [10 mg Bendiocarb],>60,>60,2,2,27,2,2,2,2,9,2,
CC1(C)[C@H](C(=O)O[C@H](C#N)c2cccc(Oc3ccccc3)c2)[C@@H]1C=C(Br)Br [5 mg DTM],>60,>60,6,4,6,6,7,15,19,13,6,
O=C(O)CCCCCCCCC(=O)O [1% Sebacic acid],,,,,,,,,,,,% KD and Mortality ([2]; 3′): 3%; % KD and Mortality ([2]; 9′): 3%; % KD and Mortality ([2]; 15′): 3%; % KD and Mortality ([2]; 30′): 3%; % KD and Mortality ([2]; 1 h): 3%; % KD and Mortality ([2]; 2 h): 3%; % KD and Mortality ([2]; 3 h): 3%; % KD and Mortality ([2]; 4 h): 3%; % KD and Mortality ([2]; 24 h (mortality)): 13%
"CC1(C)CC(O)CC(C)(C)N1 [Derivative 7, 4-Hydroxy-2,2,6,6-tetramethylpiperidine]",,,,,,,,,,,,efficacy enhancement of the insecticide by the additive (summary in words) [2]: superior to Compound A in the first test and inferior in the second test
O=C(CCCCCCCCC(=O)ON1C(=O)CCC1=O)ON1C(=O)CCC1=O,,,,,,,,,,,,% KD and Mortality ([2]; 3′): 0%; % KD and Mortality ([2]; 9′): 0%; % KD and Mortality ([2]; 15′): 0%; % KD and Mortality ([2]; 30′): 0%; % KD and Mortality ([2]; 1 h): 0%; % KD and Mortality ([2]; 2 h): 0%; % KD and Mortality ([2]; 3 h): 0%; % KD and Mortality ([2]; 4 h): 0%; % KD and Mortality ([2]; 24 h (mortality)): 0%
"COC(=O)CCCCCCCCC(=O)OC [Derivative 1, Dimethyl sebacate]",,,,,,,,,,,,efficacy enhancement of the insecticide by the additive (summary in words) [2]: acted weaker in both tests; efficacy enhancement of the insecticide by the additive (summary in words) ([2]; listed as Dimethyl sebacate): no efficacy enhancement
O=C(O)CC(O)(CC(=O)O)C(=O)O [citric acid],,,,,,,,,,,,efficacy enhancement of the insecticide by the additive (summary in words) [2]: better efficacy of bendiocarb alone
CC1(C)[C@H](C(=O)O[C@H](C#N)c2cccc(Oc3ccccc3)c2)[C@@H]1C=C(Br)Br [40 mg DTM],10,40,53,66,76,92,97,100,100,83,22,
